Test results taken from ChEMBL document CHEMBL1201862, “PubChem BioAssay data set” (2004).
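Compound exposure: 48 hours, 5 concentrations, 96-well plates. GI50 is the concentration that inhibits growth by half.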 The source made the active and inactive calls. Cut-off read from the data, not from the text of the source: active = GI50 up to about 1.1 µM and inactive = higher.

Columns and labels:
Experiment in all cases: NCI anticancer screen, dose series, 48 h
MDA-N = test system: MDA-N
IGROV-1 = test system: IGROV-1
LOX IMVI = test system: LOX IMVI
RPMI-8226 = test system: RPMI-8226
MDA-MB-435 = test system: MDA-MB-435
UO-31 = test system: UO-31
COLO 205 = test system: COLO 205
OVCAR-5 = test system: OVCAR-5
A549 = test system: A549
HOP-62 = test system: HOP-62
PC-3 = test system: PC-3
SF-268 = test system: SF-268
A498 = test system: A498
786-0 = test system: 786-0
U-251 = test system: U-251
SK-MEL-5 = test system: SK-MEL-5
RXF 393 = test system: RXF 393
SN12C = test system: SN12C
SK-MEL-28 = test system: SK-MEL-28
SW-620 = test system: SW-620

Row | SMILES | GI50 (MDA-N) | GI50 (IGROV-1) | GI50 (LOX IMVI) | GI50 (RPMI-8226) | GI50 (MDA-MB-435) | GI50 (UO-31) | GI50 (COLO 205) | GI50 (OVCAR-5) | GI50 (A549) | GI50 (HOP-62) | GI50 (PC-3) | GI50 (SF-268) | GI50 (A498) | GI50 (786-0) | GI50 (U-251) | GI50 (SK-MEL-5) | GI50 (RXF 393) | GI50 (SN12C) | GI50 (SK-MEL-28) | GI50 (SW-620)
1 | CN(C)c1ccc(/C=c2\c3ccccc3n3c2cc(-c2ccccc2)[n+]3C)cc1 | 0.144 µM (active) | 0.0689 µM (active) | 0.118 µM (active) | 0.0172 µM (active) | 0.0916 µM (active) | 0.383 µM (active) | 0.0143 µM (active) | 0.67 µM (active) | 0.201 µM (active) | 0.303 µM (active) | 0.0726 µM (active) | 0.261 µM (active) | 1.42 µM (inactive) | 0.142 µM (active) | 0.0322 µM (active) | 0.0728 µM (active) | 0.547 µM (active) | 0.149 µM (active) | 0.365 µM (active) | 0.119 µM (active)
2 | CN(C)c1ccc(/C=C/C(=O)c2ccc(O)cc2)cc1 | 0.935 µM (active) | 10.2 µM (inactive) | 6.35 µM (inactive) | 3.85 µM (inactive) | 1.27 µM (inactive) | 14.4 µM (inactive) | 14 µM (inactive) | 38.6 µM (inactive) | 6.27 µM (inactive) | 10.1 µM (inactive) | 14.8 µM (inactive) | 15.4 µM (inactive) | 17.1 µM (inactive) | 7.64 µM (inactive) | 3.99 µM (inactive) | 6.58 µM (inactive) | 6.27 µM (inactive) | 5.37 µM (inactive) | 4.88 µM (inactive) | 3.57 µM (inactive)
3 | O=c1oc2ccc3ccccc3c2cc1-c1nc2ccccc2o1 | 23.3 µM (inactive) | 12.7 µM (inactive) | 16.6 µM (inactive) | > 38.8 µM (inactive) | 23.2 µM (inactive) | 30.9 µM (inactive) | 53.5 µM (inactive) | > 100 µM (inactive) | 28.2 µM (inactive) | 18.6 µM (inactive) | 28.1 µM (inactive) | 22.1 µM (inactive) | 25.9 µM (inactive) | 18.6 µM (inactive) | 22.2 µM (inactive) | 25.9 µM (inactive) | 16.1 µM (inactive) | 22.6 µM (inactive) | 22.6 µM (inactive) | 21.8 µM (inactive)
4 | COc1c2c(c(OC)c3c1c(=O)c1ccccc1n3C)OCO2 | 2.08 µM (inactive) | 7.87 µM (inactive) | 5.48 µM (inactive) | 11.4 µM (inactive) | 2.28 µM (inactive) | 39.4 µM (inactive) | 7.66 µM (inactive) | > 72.3 µM (inactive) | 44.5 µM (inactive) | 25.2 µM (inactive) | 19.7 µM (inactive) | 18.5 µM (inactive) | 53.3 µM (inactive) | 29.2 µM (inactive) | 19.1 µM (inactive) | 3.14 µM (inactive) | 6.07 µM (inactive) | 33.5 µM (inactive) | 30.5 µM (inactive) | 4.13 µM (inactive)
5 | CC(C)C1(C)N=C(C(F)(F)F)c2cc(C(=O)C(F)(F)F)c3ccccc3c2N1 (stereo not given) | 3.04 µM (inactive) | 1.16 µM (inactive) | 2.45 µM (inactive) | 3.53 µM (inactive) | 3.21 µM (inactive) | 5.9 µM (inactive) | 4.14 µM (inactive) | 11.2 µM (inactive) | 5.43 µM (inactive) | 4.9 µM (inactive) | 2.52 µM (inactive) | 3.02 µM (inactive) | 14.9 µM (inactive) | 3.7 µM (inactive) | 2.91 µM (inactive) | 10.7 µM (inactive) | 2.71 µM (inactive) | 2.91 µM (inactive) | 5.22 µM (inactive) | 5.55 µM (inactive)
6 | CC[C@H](C)[C@H](NC(=O)[C@H](Cc1ccc(O)cc1)NCC(F)(F)F)C(=O)OC(C)(C)C | 8.32 µM (inactive) | 7.5 µM (inactive) | 8.67 µM (inactive) | 6.64 µM (inactive) | 7 µM (inactive) | 7.64 µM (inactive) | 8.05 µM (inactive) | 8.63 µM (inactive) | 5.41 µM (inactive) | 9.25 µM (inactive) | 6.43 µM (inactive) | 9.71 µM (inactive) | 7.31 µM (inactive) | 8.15 µM (inactive) | 6.85 µM (inactive) | 7.41 µM (inactive) | 7.16 µM (inactive) | 8.81 µM (inactive) | 9.38 µM (inactive) | 9.82 µM (inactive)
7 | CN1CCN(c2n[nH]c(=O)c3c2nnn3C2CCCCC2)CC1 | > 100 µM (inactive) | > 100 µM (inactive) | > 100 µM (inactive) | > 100 µM (inactive) | > 100 µM (inactive) | > 100 µM (inactive) | > 100 µM (inactive) | > 100 µM (inactive) | > 100 µM (inactive) | > 100 µM (inactive) | > 100 µM (inactive) | > 100 µM (inactive) | > 100 µM (inactive) | > 100 µM (inactive) | > 100 µM (inactive) | > 100 µM (inactive) | > 100 µM (inactive) | > 100 µM (inactive) | > 100 µM (inactive) | > 100 µM (inactive)
